Data published in patent US9376382B2, “N-substituted isopropyldimethyl azulene sulfonamide derivatives, and preparation method and use thereof” (Sichuan Guokang Pharmaceutical Co., Ltd., priority 2011, dated 2016).

Tests used:
[1] = Stability studies (light, humidity, heat), overall comparison; conditions: summary of high-temperature, high humidity and intense light tests
[2] = Intense light irradiation test (4500LX ± 500LX), stability study; format: physicochemical; conditions: for Appearance Day 0: Day 0, cell wraps; for Appearance Day 0 / Appearance Day 5 / Appearance Day 10: first line given; for Appearance Day 5: Day 5, cell wraps; for Appearance Day 10: Day 10, cell wraps
Protocol: The test samples were open-stored in “adjustable light boxes” under the conditions of illumination of 4500LX±500LX for 10 days, and taken and detected on Day 5 and Day 10 with regards to dry items. • The characteristics, especially colour change was observed. • Melting points were measured by an automatic melting point apparatus. • By self-reflection, TLC is used to observe whether the spot numbers were increased after 5 days and 10 days.

[3] = High-temperature test (60° C.), stability study; format: physicochemical; conditions: open-stored; for Appearance Day 5: Day 5, cell wraps; for Appearance Day 5 / Appearance Day 10: first line given; for Appearance Day 10: Day 10, cell wraps;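 for all read-outs here: samples kept uncovered in dishes at 60 °C for up to 10 days and examined on Day 5 and Day 10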
Protocol: The test samples were open-stored in culture dishes at 60° C. for 10 days, and taken and detected on Day 5 and Day 10. • The characteristics, especially colour change were observed. • Melting points were measured by automatic melting point apparatus. • By self-reflection, TLC is used to observe whether the spot numbers were increased after 5 days and 10 days.

[4] = High humidity test (25° C., relative humidity 90% ± 5%), stability study; format: physicochemical; conditions: RH 90% ± 5%; for Appearance Day 0: Day 0, cell wraps; for Appearance Day 0 / Appearance Day 5 / Appearance Day 10: first line given; for Appearance Day 5: Day 5, cell wraps; for Appearance Day 10: Day 10, cell wraps;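 for all read-outs here: samples kept uncovered in sealed humidity desiccators, appearance judged mainly by colour change, melting point on an automatic apparatus, TLC checked for extra spots versus start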

SMILES	light, humidity and heat stability in words [1]	melting point [°C]	Melting point Day 0 [2]	Spot numbers on TLC Day 0 [2]	Appearance Day 0 [2]	Melting point Day 5 [2]	Spot numbers on TLC Day 5 [2]	Appearance Day 5 [2]	Spot numbers on TLC Day 10 [2]	Appearance Day 10 [2]	Melting point Day 0 [3]	Spot numbers on TLC Day 0 [3]	Melting point Day 5 [3]	Spot numbers on TLC Day 5 [3]	Appearance Day 5 [3]	Melting point Day 10 [3]	Spot numbers on TLC Day 10 [3]	Appearance Day 10 [3]	Melting point Day 0 [4]	Spot numbers on TLC Day 0 [4]	other results
Cc1cc(S(=O)(=O)NCC(C)C)c2c(C)ccc(C(C)C)cc1-2 [4e, N-isobutyl-3,8-dimethyl-5-isopropyl-1-azulene sulfonamide]	better light, humidity and heat stability than azulene sulfonate sodium	117 to 118	117.0-118.0 °C	1	purple	117.5-118.0 °C	1	purple	2	purple	117.0-118.0 °C	1	117.5-118.5 °C	1	purple	117.5-118.5 °C	1	purple	117.0-118.0 °C	1	Melting point Day 10 [2]: 115.0-117.5 °C; hygroscopic rate (%) Day 0 [4]: 1.07%; Appearance Day 0 [4]: purple; Melting point Day 5 [4]: 116.5-118.5 °C; Spot numbers on TLC Day 5 [4]: 1; hygroscopic rate (%) Day 5 [4]: 1.51%; Appearance Day 5 [4]: purple; Melting point Day 10 [4]: 116.5-118.5 °C; Spot numbers on TLC Day 10 [4]: 1; Appearance Day 10 [4]: purple
CCCNS(=O)(=O)c1cc(C)c2cc(C(C)C)ccc(C)c1-2 [4f, N-propyl-3,8-dimethyl-5-isopropyl-1-azulene sulfonamide]	better light, humidity and heat stability than azulene sulfonate sodium	60 to 62	59.5-62.5 °C	1	purple	58.5-62.0 °C	1	purple	2	purple	59.5-62.5 °C	1	60.0-62.0 °C	1	purple	60.0-62.0 °C	1	purple	59.5-62.5 °C	1	Melting point Day 10 [2]: 57.5-61.5 °C; hygroscopic rate (%) Day 0 [4]: 1.13%; Appearance Day 0 [4]: purple; Melting point Day 5 [4]: 59.5-63.0 °C; Spot numbers on TLC Day 5 [4]: 1; hygroscopic rate (%) Day 5 [4]: 1.28%; Appearance Day 5 [4]: purple; Melting point Day 10 [4]: 59.5-63.0 °C; Spot numbers on TLC Day 10 [4]: 1; Appearance Day 10 [4]: purple
Cc1ccc(NS(=O)(=O)c2cc(C)c3cc(C(C)C)ccc(C)c2-3)cc1 [4g, N-(4-methylphenyl)-3,8-dimethyl-5-isopropyl-1-azulene sulfonamide]	better light, humidity and heat stability than azulene sulfonate sodium	146 to 148	146.0-148.5 °C	1	purple	145.0-147.5 °C	1	purple	2	purple	146.0-148.5 °C	1	146.0-148.0 °C	1	purple	145.5-147.5 °C	1	purple	146.0-148.5 °C	1	Melting point Day 10 [2]: 143.5-147.5 °C; hygroscopic rate (%) Day 0 [4]: 1.56%; Appearance Day 0 [4]: purple; Melting point Day 5 [4]: 145.5-148.5 °C; Spot numbers on TLC Day 5 [4]: 1; hygroscopic rate (%) Day 5 [4]: 2.01%; Appearance Day 5 [4]: purple; Melting point Day 10 [4]: 145.5-148.5 °C; Spot numbers on TLC Day 10 [4]: 1; Appearance Day 10 [4]: purple
CCNS(=O)(=O)c1cc(C)c2cc(C(C)C)ccc(C)c1-2 [4h, N-ethyl-3,8-dimethyl-5-isopropyl-1-azulene sulfonamide]	better light, humidity and heat stability than azulene sulfonate sodium	96 to 98	123.5-125.5 °C	1	blue	122.0-125.5 °C	1	blue	2	blue	123.5-125.5 °C	1	123.5-125.5 °C	1	blue	124.5-125.0 °C	1	blue	123.5-125.5 °C	1	Melting point Day 10 [2]: 121.0-126.0 °C; hygroscopic rate (%) Day 0 [4]: 1.14%; Appearance Day 0 [4]: blue; Melting point Day 5 [4]: 123.5-125.5 °C; Spot numbers on TLC Day 5 [4]: 1; hygroscopic rate (%) Day 5 [4]: 2.11%; Appearance Day 5 [4]: blue; Melting point Day 10 [4]: 123.5-125.5 °C; Spot numbers on TLC Day 10 [4]: 1; Appearance Day 10 [4]: blue
Cc1cc(S(=O)(=O)NCc2ccccc2)c2c(C)ccc(C(C)C)cc1-2 [4j, N-benzyl-3,8-dimethyl-5-isopropyl-1-azulene sulfonamide]	better light, humidity and heat stability than azulene sulfonate sodium	124 to 126	124.0-125.5 °C	1	dark blue	123.5-125.5 °C	1	dark	2	blue	124.0-125.5 °C	1	124.0-125.5 °C	1	dark blue	124.0-125.5 °C	1	blue	124.0-126.0 °C	1	hygroscopic rate (%) Day 0 [4]: 1.24%; Appearance Day 0 [4]: dark; Melting point Day 5 [4]: 124.0-126.5 °C; Spot numbers on TLC Day 5 [4]: 1; hygroscopic rate (%) Day 5 [4]: 2.08%; Appearance Day 5 [4]: dark; Melting point Day 10 [4]: 124.5-126.5 °C; Spot numbers on TLC Day 10 [4]: 1; Appearance Day 10 [4]: blue
